This data set in a line: Forward extraction of acid from salt-containing aqueous feed into methyl-isobutylketone and back extraction into water. In kind it is physicochemical. The following applies: 20° C.; for DBE (distribution ratio in back extraction, [acid]organic/[acid]water): MIBK organic phase / pure water; for [acid] aqueous fraction after back extraction: feed with 15 wt. % MgCl2 (acid in feed per Table 1.1), back extraction into pure water; for [acid] aqueous fraction after back extraction / DFE (distribution ratio in forward extraction, [acid]organic/[acid]water) / concentration ratio (acid concentration in product / acid concentration in feed): MIBK; for DFE (distribution ratio in forward extraction, [acid]organic/[acid]water) / concentration ratio (acid concentration in product / acid concentration in feed): feed with 15 wt. % MgCl2. The text has this: Forward extraction and back extraction as used in the method of the invention are based on the difference in solubility of the carboxylic acid in water and the organic solvent at different temperatures. The solubility of a compound in one solvent relative to another solvent can be expressed in terms of the distribution ratio (DR). […] The distribution ratio may be defined as the ratio of the carboxylic acid concentration dissolved in the organic phase ([carboxylic acid]organic) over the concentration of the carboxylic acid dissolved in water ([carboxylic acid]water), provided that the two phases are in equilibrium with each other: DR=[carboxylic acid]organic/[carboxylic acid]water (1)
The general procedure is set up to mimic a continuous extraction process.
A feed solution was prepared comprising acid and salt in the amounts stipulated in the table. The solutions were stirred overnight.
1000 g of this feed solution was mixed with approximately 100 g of methyl-isobutylketone as solvent and stirred at 20° C. for minimum of 15 minutes. The mixture was transferred to a separation funnel where phases were separated. Samples of both phases were taken for analysis. Then approximately 100 g of organic phase was mixed with 10 g of pure water and stirred for minimum of 15 min at 20° C. Subsequently the whole mixture is again transferred to the separation funnel, phases are left to separate and samples of both phases are taken. Samples were analysed on acid content.
These tables also give the concentration ratio, which is the ratio between the acid concentration in the product and the acid concentration in the feed.
The composition of the starting solution and the acid concentration in the products is in Table 2.1 below.

The structures appear in SMILES notation.

This is an account of results in patent US10683520B2, “Polycarboxylic acid extraction” (PURAC BIOCHEM BV, priority 2011, dated 2020).

Take `O=C(O)/C=C/C(=O)O` [Fumaric acid, fumaric acid]: the “DBE (distribution ratio in back extraction, [acid]organic/[acid]water)” value stood at 0.24; the “[acid] aqueous fraction after back extraction” value came out at 0.21 wt. %; the “DFE (distribution ratio in forward extraction, [acid]organic/[acid]water)” value turned out to be 1.75; the “concentration ratio (acid concentration in product / acid concentration in feed)” value turned out to be 1.8.

For `C=C(CC(=O)O)C(=O)O` [Itaconic acid, itaconic acid], the “DBE (distribution ratio in back extraction, [acid]organic/[acid]water)” value is reported as 1.07; the “[acid] aqueous fraction after back extraction” value stood at 2.8 wt. %; the “DFE (distribution ratio in forward extraction, [acid]organic/[acid]water)” value was 2.83; the “concentration ratio (acid concentration in product / acid concentration in feed)” value turned out to be 1.9.
